System: FPTase
Test: PET Imaging in Dogs: blockade of [11C] radiotracer binding
Type: in vivo
Conditions: dose of 10 mpk infused over 5 minutes; female beagle dogs; radiotracer [11C] compound of Example 6
Procedure: Female beagle dogs weighing 7.7-14.6 kg (11.0±2.3 kg) are fasted for at least 12 hours allowing water intake ad libitum, and are premedicated with 0.3-0.4 mL Acepromazine injected i.m. on the day of the experiment. A 20 G two inch venous catheter is placed into the right front leg ulnar vein through which anesthesia is introduced by sodium pentobarbital 25-30 mg/kg in 3-4 ml and maintained with additional pentobarbital at an average dose of 3 mg/kg/hr. Another catheter is inserted into the contralateral ulnar vein for radiotracer administration.
Oxygen saturation of circulating blood is measured with a pulse oximeter (Nellcor Inc., Hayward, Calif.) placed on the tongue of the animal. Circulatory volume is maintained by intravenous infusion of isotonic saline. A 22 G cannula is inserted into the anterior tibial or distal femoral artery for continuous pressure monitoring (Spacelabs™, model 90603A). EKG, heart rate, and core temperature are monitored continuously. In particular, EKG is observed for ST segment changes and arrhythmias. […]
For uninhibited distribution of radiotracer, regions of interest (ROIs) are drawn on the reconstructed image includes the kidney cortex and a region of liver which is removed from the gallbladder images. […] Data are expressed as radioactivity per unit time per unit volume (μCi/cc/mCi injected dose). […]

## (S)-1-(3-Fluoroethoxy-5-bromophenyl)-4-[1-(4-cyanobenzyl) -5-imidazoylmethyl]-5-[(methanesulfonyl)ethyl]-2-piperazinone [Example 2]
  block of PET radiotracer binding (maximum enzyme-specific signal): completely block radiotracer binding

Reference: patent US6458935B1, “Radiolabeled farnesyl-protein transferase inhibitors” (Merck & Co., Inc., priority 1999, dated 2002)
